This is an account of results in patent publication US20260174682A1, “GAMMA-AMINOBUTYRIC ACID DERIVATIVE COMPRISING POLYCYCLIC STRUCTURE, METHOD FOR PREPARING SAME, AND USE THEREOF” (ZHONGSHAN INSTITUTE FOR DRUG DISCOVERY, SIMM, CAS., priority 2022, published 2026).

Structures are written as SMILES. Read-outs that look alike come from different tables or passages of the source. Marks after values point to notes of the source that are not given here.

Assay [1] relates to diabetic peripheral neuropathic pain. Conditions: cited from earlier work.
Assay [2] deals with mouse maximum electroshock model (MES). Nature of the assay: Antiepileptic effect in mouse maximum electroshock model (MES). In kind it is in vivo. To be noted: MES, ICR mice, gavage, dose 300 mg/kg. The procedure:
A negative vehicle control group, a positive drug control group (pregabalin and gabapentin) and a test group of the compounds of the present application were set. Male ICR mice with a body weight of […] were selected. […] After fasted for 12 h, the mice were administered the compounds of the present application or the control drugs according to the body weight, and then subjected to electrical stimulation to induce generalized tonic-clonic seizure behaviors after a certain lime interval (2 h for pregabalin, 1 h for gabapentin, and 3 h for the compounds of the present application). A YLS-9A electrophysiological stimulator (Shanghai Xinruan Information Technology Co., Ltd.) was used in an induction model, and parameters were set as follows: configuration 8, stimulation voltage 160 V, wave number 90. When the electrical stimulation was performed, ears on both sides of the mice were firstly wiped with normal saline and then given the electrical stimulation for 1 lime with ear clip electrodes. Tonic straightening of hind limbs was used as a standard for epilepsy seizures. The animals with the tonic straightening of hind limbs were regarded as not being protected by the drugs, and the animals without the tonic straightening of hind limbs were regarded as being protected by the drugs. Response situations of the animals were observed and recorded, and obtained data were counted to calculate protection rates of the compounds.
Median effective doses (ED50) of the compounds to be tested for animal protection were calculated by a least square method (Graphpad Prism 5) with an administration dose-protection rate curve.

Assay [3] relates to mouse model with subcutaneous injection of pentylenetetrazole (sc-PTZ). Nature of the assay: Antiepileptic effect in mouse model with subcutaneous injection of pentylenetetrazole (sc-PTZ). In kind it is in vivo. The procedure:
A negative vehicle control group, a positive drug control group (pregabalin and gabapentin) and a test group of the compounds of the present application were set. Male ICR mice with a body weight of 22±2 g were selected. […] After fasted for 12 h, the mice were administered the compounds of the present application or the control drugs, and then subcutaneously injected with pentylenetetrazole (PTZ) to induce epilepsy seizure behaviors after a certain time interval (2 h for pregabalin, 1 h for gabapentin, and 3 h for the compounds of the present application). In an induction model, pentylenetetrazole (PTZ) was dissolved in normal saline and administered to the mice through the way of subcutaneous injection (10 mL/kg, administration dose 100 mg/kg). After the injection of PTZ, behavioral observations on the mice were conducted for 1 h, and the latent periods and numbers of the mice with convulsive seizures, clonic seizures, tonic seizures and death after the injection of PTZ were recorded.
Statistical method: Protection rates and mortality of different administration groups were separately compared with those of the vehicle control group to carry out a Fisher's exact test. The seizure time and the latent periods were analyzed by one-way ANOVA.

The test system of assay [4] is postherpetic neuralgia. To be noted: cited from earlier work.
The subject of assay [5] is mouse 6-Hz psychomotor seizure model. The assay can be described thus: Antiepileptic effect in mouse 6-Hz psychomotor seizure model. Conditions: 6-Hz model, C57BL/6 mice, gavage, dose 300 mg/kg. In kind it is in vivo. The procedure:
A negative vehicle control group, a positive drug control group (pregabalin and gabapentin) and a test group of the compounds of the present application were set. Male C57BL/6 mice with a body weight of 20±2 g were selected. […] After fasted for 12 h, the mice were administered the compounds of the present application or the control drugs, and then subjected to 6-Hz electrical stimulation to induce epilepsy seizure behaviors after a certain time interval (2 h for pregabalin, 1 h for gabapentin, 1 h for levetiracetam, and 3 h for the compounds of the present application). In an induction model, when the stimulation was performed with a Model 4100 stimulator (A-M Systems, the United States), rear necks of the mice were immobilized by hands on a feeding cage, a corneal electrode was moisten with normal saline and allowed to gently contact bilateral corneas of the mice, the electrical stimulator was trod by a foot to give the mice the electrical stimulation with a stimulation parameter of 6-Hz, a one-way square wave of 32 mA, a wave width of 0.2 ms and a stimulation duration of 3 sec, and timing was performed with a stopwatch during the stimulation. After the electrical stimulation was completed, the mice with the seizure behaviors lasting for less than 7 sec were regarded as being protected by the drugs, and the mice with the seizure behaviors lasting for more than 7 sec were regarded as being not protected from the epilepsy by the drugs. Response situations of the animals were observed and recorded, and obtained data were counted to calculate protection rates of the compounds.
Statistical method: The protection rates of different administration groups were separately compared with that of the vehicle control group to carry out a Fisher's exact test.

[6] abbreviates: sc-PTZ 100 mg/kg, ICR mice, intraperitoneal 30 mg/kg (own compounds calculated by free base), 1 h observation.

Regarding `CNCC[C@H](Oc1cccc2ccccc12)c1cccs1` [duloxetine], the clinical effective rate in assay [1] (60 mg/day) is 49%; in assay [1] (120 mg/day), 52%.
Turning to `NCC1(CC(=O)O)CCCCC1` [Gabapentin], in assay [2], the “Number of animals with tonic straightening of hind limbs/total number of detected animals” value was 2/8 and the “Protection rate (%)” value is on record as 75.0%. Moreover, in assay [3] (setting [6]), the Clonic seizure incidence is 10/10, the Convulsive seizure incidence is on record as 10/10, the “Generalized clonic seizure incidence” value was 10/10 and the Mortality is recorded as 7/10. Moreover, the Tonic seizure incidence in assay [3] (setting [6]) is reported as 6/10. Further, the “improvement of the convulsive seizure incidence and the mortality” value in assay [3] (sc-PTZ mice, 30 mg/kg) is given as “does not significantly improve”. In assay [3] (sc-PTZ mice, 30 mg/kg (calculated by free base), FIG. 6), the “latent periods of generalized clonic seizures, tonic seizures and death” value is on record as “not effective”. Moreover, the clinical effective rate in assay [4] (daily dose up to 1,800 mg/day) was 32%. Moreover, in assay [4] (daily dose up to 2,400 mg/day), the clinical effective rate is on record as 34%. Besides, in assay [4] (daily dose up to 3,600 mg/day), the clinical effective rate was 43%. In addition, in assay [5], the “Number of animals with clonic seizures/total number” value was 2/4 and the “Protection rate (%)” value is given as 50.0 * %.
